These are literature values, as cited in patent US20050065088A1, “Pharmaceutical compositions and methods comprising combinations of 2-alkylidene-19-nor-vitamin D derivatives and parathyroid hormone” (Pfizer Inc., priority 2003, published 2005).

Series [1] concerns intestinal calcium transport. Conditions: chronic dosing 7 days, 130 or 260 pmol dose (1,25-(OH)2D3 only 260 pmol/day).
For series [2], the system named is serum calcium (bone calcium mobilization). The settings on record: for selectivity bone calcium mobilization versus intestinal calcium transport, in words / bone calcium mobilization, result in words: chronic dosing 7 days; for bone calcium mobilization, result in words: 130 and 260 pmol/day.
For a further series, the system named is HL-60 cells. The settings on record: result in words.

Turning to `C=C1/C(=C\C=C2/CCC[C@]3(C)[C@@H]([C@H](C)CCCC(C)(C)O)CC[C@@H]23)C[C@@H](O)C[C@@H]1O` [1,25-(OH)2D3, 1,25-dihydroxyvitamin D3, reference compound], in series [1], the “intestinal calcium transport, result in words” value was “expected elevation”.
As for `C=C1[C@H](O)CC(=C/C=C2\CCC[C@]3(C)[C@@H]([C@@H](C)CCCC(C)(C)O)CC[C@@H]23)C[C@H]1O` [2-Methylene-19-Nor-20S-1,25-(OH)2D3, (20S)-1α,25-dihydroxy-2-methylene-19-nor-vitamin D3], the “intestinal calcium transport, result in words” value in series [1] was “no significant change”. The “activity on bone calcium mobilization (serum calcium) relative to the native hormone” value in series [2] (130 pmol/day, 7 days, 'at least 10 and possible 100-1,000 times') is “at least 10 times”. Also, in series [2], the “selectivity bone calcium mobilization versus intestinal calcium transport, in words” value is recorded as “selective for the mobilization of calcium from bone” and the “bone calcium mobilization, result in words” value is “most potent compound tested”. Also, in the series with HL-60 cells, the “inducing differentiation of HL-60 cells to the monocyte” value is “extremely potent”.
On to `C=C1[C@H](O)CC(=C/C=C2\CCC[C@]3(C)[C@@H]([C@H](C)CCCC(C)(C)O)CC[C@@H]23)C[C@H]1O` [2-Methylene-19-Nor-1,25-(OH)2D3, 1α,25-dihydroxy-2-methylene-19-nor-vitamin D3], for which the “intestinal calcium transport, result in words” value in series [1] was “no intestinal calcium transport activity”. Besides, in series [2], the “selectivity bone calcium mobilization versus intestinal calcium transport, in words” value was “selective for the mobilization of calcium from bone” and the “bone calcium mobilization, result in words” value is “extremely strong bone calcium mobilization”. Also, the “bone calcium mobilization activity relative to 1,25-(OH)2D3” value in series [2] (chronic dosing, 7 days, 'likely to be') was 10-100 times. Also, the “inducing differentiation of HL-60 cells to the monocyte” value with HL-60 cells is “activity similar to 1,25-(OH)2D3”.
